Measured values: patent US20150338330A1, “Method for Comprehensive Assessment of Platelet Aggregation” (FUJIMORI KOGYO CO., LTD.,, priority 2012, published 2015)

Key:
Format in all cases: cell-based
platelets [1] = test: Filter back-pressure measurement, collagen reagent (final 1.4 μg/ml), repeated 5 times; conditions: collagen final 1.4 μg/ml; 5 times of measurement; no inhibitor
Experimental: (§1) The apparatus in FIG. 1 was prepared for use in the following experiments.
(§2) As the container 1 (blood reservoir), a cylindrical acrylic container having a capacity of 450 μl (inner diameter, 6 mm; depth, 16 mm) was used.
(§3) As the filter, a circular nickel micromesh filter having 30 μm×30 μm square openings (pitch size, 45 μm) and a diameter of 1 mm, placed at the center of the filter section was used.
To the blood reservoir, 13 μl of 50 μg/ml (final concentration, 1.4 μg/ml) collagen reagent (manufactured by Dynabite GmbH) was added, and 450 μl of blood collected in a Terumo blood collection tube (Venoject, containing 3.13% sodium citrate) was added thereto. After mixing the resulting mixture, the filter device was connected to the blood reservoir. One minute after the mixing of the blood with the collagen reagent, mineral oil was injected into the blood reservoir at a flow rate of 60 μl/minute to inject the blood into the filter device.
The back pressure exerted on the mineral oil was continuously monitored for 5 minutes at intervals of 1 second using the pressure sensor. The measurement was repeated 5 times.

platelets [2] = test: Filter back-pressure measurement of platelet aggregation, PAR1-activating reagent (SFLLRN), citrated blood; conditions: aspirin 100 μM
Experimental: The apparatus in FIG. 1 was prepared for use in the following experiments. As the container 1 (blood reservoir), a cylindrical acrylic container having a capacity of […] (inner diameter, 6 mm; depth, 16 mm) was used. As the filter, a circular nickel micromesh filter having 30 μm×30 μm square openings (pitch size, 45 μm) and a diameter of 1 mm, placed at the center of the filter section was used. To the blood reservoir, 20 μl of 1 mM PAR1-activating reagent (peptide sequence, […]; manufactured by Dynabite GmbH) was added, and 450 μl of blood collected in a Terumo blood collection tube (Venoject, containing 3.13% sodium citrate) was added thereto. After mixing the resulting mixture, the filter device was connected to the blood reservoir. […] The back pressure exerted on the mineral oil was continuously monitored for 5 minutes at intervals of 1 second using the pressure sensor. The same measurement was carried out for blood to which aspirin was added to a final concentration of 100 μM.

platelets [3] = test: Filter back-pressure measurement of platelet aggregation, collagen reagent (final 0.7 μg/ml), citrated blood; conditions: aspirin 100 μM; collagen 0.7 μg/ml
Experimental: The apparatus in FIG. 1 was prepared for use in the following experiments. As the container 1 (blood reservoir), a cylindrical acrylic container having a capacity of 450 μl (inner diameter, 6 mm; depth, 16 mm) was used. As the filter, a circular nickel micromesh filter having 30 μm×30 μm square openings (pitch size, 45 μm) and a diameter of 1 mm, placed at the center of the filter section was used. To the blood reservoir, 13 μl of 25 μg/ml (final concentration, 0.7 μg/ml) collagen reagent (manufactured by Dynabite GmbH) was added, and 450 μl of blood collected in a Terumo blood collection tube (Venoject, containing 3.13% sodium citrate) was added thereto. After mixing the resulting mixture, the filter device was connected to the blood reservoir. One minute after the mixing of the blood with the collagen reagent, mineral oil was injected into the blood reservoir at a flow rate of 60 μl/minute to inject the blood into the filter device. The back pressure exerted on the mineral oil was continuously monitored for 5 minutes at intervals of 1 second using the pressure sensor. In addition, the same measurement was carried out for blood to which aspirin was added to a final concentration of 100 μM, or blood to which both 50 μM aspirin and 250 μM AR-C66096 were added.

platelets [4] = test: Filter back-pressure measurement of platelet aggregation, PAR4-activating reagent (AYPGKF), citrated blood; conditions: aspirin 100 μM
Experimental: The apparatus in FIG. 1 was prepared for use in the following experiments. As the container 1 (blood reservoir), a cylindrical acrylic container having a capacity of 450 μl (inner diameter, 6 mm; depth, 16 mm) was used. As the filter, a circular nickel micromesh filter having 30 μm×30 μm square openings (pitch size, 45 μm) and a diameter of 1 mm, placed at the center of the filter section was used. To the blood reservoir, 20 μl of 20 mM PAR4-activating reagent (peptide sequence, AYPGKF; manufactured by Dynabite GmbH) was added, and 450 μl of blood collected in a Terumo blood collection tube (Venoject, containing 3.13% sodium citrate) was added thereto. After mixing the resulting mixture, the filter device was connected to the blood reservoir. One minute after the mixing of the blood with the collagen reagent, mineral oil was injected into the blood reservoir at a flow rate of 60 μl/minute to inject the blood into the filter device. The back pressure exerted on the mineral oil was continuously monitored for 5 minutes at intervals of 1 second using the pressure sensor. The same measurement was carried out for blood to which aspirin was added to a final concentration of 100 μM.

platelets [5] = test: Filter back-pressure measurement of platelet aggregation, arachidonic acid (6.25 mM or 10 mM), citrated blood
Experimental: as §1, §2, §3
To the blood reservoir, 30 or 50 μl (final concentration, 6.25 mM or 10 mM, respectively) of 100 mM arachidonic acid (manufactured by Dynabite GmbH) was added, and 450 μl of blood collected in a Terumo blood collection tube (Venoject, containing 3.13% sodium citrate) was added thereto. After mixing the resulting mixture, the filter device was connected to the blood reservoir. One minute after the mixing of the blood with the collagen reagent, mineral oil was injected into the blood reservoir at a flow rate of 60 μl/minute to inject the blood into the filter device.
The back pressure exerted on the mineral oil was continuously monitored for 5 minutes at intervals of 1 second using the pressure sensor. In addition, the same measurement was carried out for a mixture prepared by mixing 50 μl of an arachidonic acid reagent with blood to which aspirin was added to a final concentration of 100 μM.

platelets [6] = test: Multiplate impedance-based whole blood platelet aggregation, collagen (final 3.2 μg/ml); conditions: aspirin 100 μM; collagen 3.2 μg/ml
Experimental: To provide controls, whole blood platelet aggregation was similarly measured for blood to which aspirin was added to a final concentration of 100 μM, and blood to which both 50 μM aspirin and 250 μM AR-C66096 were added, using Multiplate (impedance-based platelet aggregability analyzer, Dynabite GmbH). As the platelet-activating reagent, collagen (final concentration, 3.2 μg/ml) was used.

platelets [7] = test: Multiplate impedance-based whole blood platelet aggregation, ADP (final 6.5 μM); conditions: ADP 6.5 μM
Experimental: To provide controls, whole blood platelet aggregation was similarly measured for blood to which AR-C66096 was added to a final concentration of 25, 50, 100, or 250 nM, using Multiplate (impedance-based platelet aggregability analyzer, Dynabite GmbH). As the platelet-activating reagent, ADP (final concentration, 6.5 μM) was used. […] That is, in the absence of a physical load by blood flow or the like, platelet aggregates that have once adhered/aggregated to the electrode were maintained without breakdown, leading to the increase in the electric resistance.

platelets [8] = test: Filter back-pressure measurement of platelet aggregation, ADP reagent (final 5.6 μM), citrated blood; set-up: area under the curve of the pressure waveform: unit not given beside the values; conditions: for area under the curve of the pressure waveform: 60 μl/minute, 5 minutes
Experimental: as §1, §2, §3
To the blood reservoir, 13 μl of […] ADP reagent (Dynabite GmbH, Germany) (final concentration, 5.6 μM) was added, and 450 μl of blood collected in a Terumo blood collection tube (Venoject, containing 3.13% sodium citrate) was added thereto. The resulting mixture was mixed in the blood reservoir, and the filter device was connected to the blood reservoir. One minute after the mixing of the blood with the ADP reagent, mineral oil was injected into the blood reservoir at a flow rate of 60 μl/minute to inject the blood into the filter device.
The back pressure exerted on the mineral oil was continuously monitored for 5 minutes at intervals of 1 second using the pressure sensor. In addition, the same measurement was carried out for blood to which AR-C66096 (platelet P2Y12 receptor inhibitor; Tocris Bioscience, UK) was added to a final concentration of 25, 50, 100, or 250 nM.

[9] = AR-C66096 25-250 nM, ADP 5.6 μM

For collagen, the “area under the curve of the pressure waveform (mean±SD)” value (platelets [1]) was 15.11±0.8.

`CC(=O)Oc1ccccc1C(=O)O` [aspirin] was tested, and the “aggregation waveform obtained by the PAR1-activating peptide” value (platelets [2]) was “not inhibited”, the “beginning of the pressure increase” value (platelets [3]) was “delayed” and the pressure increase (platelets [3]) was “suppressed”. The “aggregation waveform obtained by the PAR4-activating peptide” value (platelets [4]) was “not inhibited”, the pressure increase (platelets [5]; aspirin 100 μM, 50 μl arachidonic acid reagent (10 mM)) was “suppressed” and the “AUC of the electric resistance (Multiplate)” value (platelets [6]) was 28. For the same molecule, the “effect on Multiplate aggregation” value (platelets [6]) was “an effect of aspirin could be found”.

`CCCCC/C=C\C/C=C\C/C=C\C/C=C\CCCC(=O)O` [arachidonic acid] was tested, and the “platelet activation / pressure” value (platelets [5]; arachidonic acid 6.25 mM or 10 mM) was “activated platelets to increase the pressure”.

With `CCCSc1nc(N)c2ncn([C@@H]3O[C@H](COP(=O)(O)OP(=O)(O)C(F)(F)P(=O)(O)O)[C@@H](O)[C@H]3O)c2n1` [AR-C66096] the “AUC (Multiplate impedance)” value (platelets [7]; AR-C66096 25 nM) was 23, the “AUC (Multiplate impedance)” value (platelets [7]; AR-C66096 50 nM) was 19 and the “AUC (Multiplate impedance)” value (platelets [7]; AR-C66096 100 nM) was 15. For the same molecule, the “AUC (Multiplate impedance)” value (platelets [7]; AR-C66096 250 nM) was 17, the “concentration dependence of AUC (Multiplate)” value (platelets [7]; AR-C66096 25-250 nM) was “no concentration dependence was found” and the “area under the curve of the pressure waveform” value (platelets [8]; AR-C66096 25 nM, ADP 5.6 μM) was 11.75. The “stability and persistence of platelet aggregates” value (platelets [8]; AR-C66096 50 nM or 100 nM, arch-shaped pressure curves) was “suppressed”, the “area under the curve of the pressure waveform” value (platelets [8]; AR-C66096 50 nM, ADP 5.6 μM) was 8.7 and the “area under the curve of the pressure waveform” value (platelets [8]; AR-C66096 100 nM, ADP 5.6 μM) was 8.05. The “area under the curve of the pressure waveform” value (platelets [8]; AR-C66096 250 nM, ADP 5.6 μM) was 7.95, the “beginning of the pressure increase” value (platelets [8]; [9]) was “delayed” and the pressure increase (platelets [8]; [9]) was “suppressed the pressure increase in a concentration-dependent manner”.
